The values that follow come from US10301306B2, “Substituted dihydro-1H-pyrrolo[3,2-c]pyridin-4(5H)-ones as RIPK3 inhibitors” (BRISTOL-MYERS SQUIBB COMPANY, priority 2014, dated 2019).

The structures appear in SMILES notation.

Sequence of RIPK3 (Q9Y572 whole entry, species assumed): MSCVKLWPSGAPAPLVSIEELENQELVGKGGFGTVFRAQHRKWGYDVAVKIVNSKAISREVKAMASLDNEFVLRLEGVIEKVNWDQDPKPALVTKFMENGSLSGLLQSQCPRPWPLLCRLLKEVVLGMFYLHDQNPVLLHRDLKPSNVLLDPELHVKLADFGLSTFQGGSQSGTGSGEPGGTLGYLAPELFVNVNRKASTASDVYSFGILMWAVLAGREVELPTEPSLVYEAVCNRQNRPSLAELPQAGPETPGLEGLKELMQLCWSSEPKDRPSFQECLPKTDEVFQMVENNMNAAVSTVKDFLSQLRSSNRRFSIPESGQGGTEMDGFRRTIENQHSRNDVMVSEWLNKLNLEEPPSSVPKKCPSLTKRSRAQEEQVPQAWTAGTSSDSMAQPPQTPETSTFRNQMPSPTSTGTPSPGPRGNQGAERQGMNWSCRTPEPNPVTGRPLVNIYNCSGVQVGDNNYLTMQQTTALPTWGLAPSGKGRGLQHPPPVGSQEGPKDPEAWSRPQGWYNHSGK

The first assay concerns the target RIPK3 (Homo sapiens (Human), UniProt Q9Y572). The experiment in a line: RIPK3 HTRF Kinase Assay. Format: binding. To be noted: RIPK3 1 nM; HTRF probe 23 nM; 60 min at room temperature; read-out: IC50 for Inhibition of RIPK3. Background: In TR-FRET formats the signal depends on donor and acceptor labels being close together.
As usually defined, the IC50 is the concentration that gives 50% inhibition. Regarding `O=C1NCCc2c1c(-c1ccc(F)cc1)c(-c1ccncc1)n2Cc1ccc(F)cc1C(F)(F)F` [Example 55], the IC50 was below 30 nM.

In the case of `O=C1NCCc2c1c(-c1ccc(F)cc1)c(-c1ccncc1)n2Cc1nnc(C2CC2)o1` [Example 56], the IC50 lay in the range of 100 to 15000 nM. The same measure, in the same setting: for `CC(C)Cn1c2c(c(-c3ccc(F)cc3)c1-c1ccncc1)C(=O)NCC2` [Example 58] the value was 31 to 100 nM. Take `N#CCCCn1c2c(c(-c3ccc(F)cc3)c1-c1ccncc1)C(=O)NCC2` [Example 59]: the IC50 lay in the range of 100 to 15000 nM. As to `Cc1nc(Cn2c3c(c(-c4ccc(F)cc4)c2-c2ccncc2)C(=O)NCC3)cs1` [Example 60], the IC50 was 31 to 100 nM. Turning to `CC(C)(C)Cn1c2c(c(-c3ccc(F)cc3)c1-c1ccncc1)C(=O)NCC2` [Example 61], the IC50 lay in the range of 100 to 15000 nM.

As to `CCn1c2c(c(-c3ccc(F)cc3)c1-c1ccncc1)C(=O)NCC2` [Example 62], the IC50 was 100 to 15000 nM. Still for that read-out and setting: for `CCC(C)n1c2c(c(-c3ccc(F)cc3)c1-c1ccncc1)C(=O)NCC2` (centres unmarked) [Example 63] the value was 100 to 15000 nM; for `O=C1NCCc2c1c(-c1ccc(F)cc1)c(-c1ccncc1)n2Cc1ccc(F)cc1F` [Example 64], below 30 nM; for `Cc1cc(Cn2c3c(c(-c4ccc(F)cc4)c2-c2ccncc2)C(=O)NCC3)n(C)n1` [Example 65], below 30 nM. Same read-out and setting: for `O=C1NCCc2c1c(-c1ccc(F)cc1)c(-c1ccncc1)n2Cc1ccncc1` [Example 66] the value was below 30 nM; for `COc1cc(C(F)(F)F)ccc1Cn1c2c(c(-c3ccc(F)cc3)c1-c1ccncc1)C(=O)NCC2` [Example 67], 31 to 100 nM.

With `N#Cc1ccccc1Cn1c2c(c(-c3ccc(F)cc3)c1-c1ccncc1)C(=O)NCC2` [Example 68], the IC50 was below 30 nM. On to `O=C1NCCc2c1c(-c1ccc(F)cc1)c(-c1ccncc1)n2CCCO` [Example 69], for which the concentration for half-maximal inhibition (IC50) was 31 to 100 nM.

Regarding `O=C1NCCc2c1c(-c1ccc(F)cc1)c(-c1ccncc1)n2CC(=O)N1CCCC1` [Example 70], the IC50 is 31 to 100 nM. The same measure, in the same setting: for `O=C1NCCc2c1c(-c1ccc(F)cc1)c(-c1ccncc1)n2Cc1c(F)cc(F)cc1F` [Example 71] the value was below 30 nM; for `O=C1NCCc2c1c(-c1ccc(F)cc1)c(-c1ccncc1)n2Cc1ccncn1` [Example 72], 100 to 15000 nM; for `O=C1NCCc2c1c(-c1ccc(F)cc1)c(-c1ccncc1)n2Cc1c(F)cccc1C(F)(F)F` [Example 73], below 30 nM. On the same count and under the same terms, for `O=C1NCCc2c1c(-c1ccc(F)cc1)c(-c1ccncc1)n2Cc1ccc(Cl)cc1F` [Example 74] the value was below 30 nM; for `CC(C)(C)CCn1c2c(c(-c3ccc(F)cc3)c1-c1ccncc1)C(=O)NCC2` [Example 75], below 30 nM.

`O=C1NCCc2c1c(-c1ccc(F)cc1)c(-c1ccncc1)n2Cc1ccccn1` [Example 76]: the IC50 lay in the range of 100 to 15000 nM. Still for that read-out and setting: for `N#Cc1cccc(F)c1Cn1c2c(c(-c3ccc(F)cc3)c1-c1ccncc1)C(=O)NCC2` [Example 77] the value was below 30 nM; for `O=C1NCCc2c1c(-c1ccc(F)cc1)c(-c1ccncc1)n2CC1CCCC1` [Example 78], below 30 nM; for `Cc1cc(Cn2c3c(c(-c4ccc(F)cc4)c2-c2ccncc2)C(=O)NCC3)no1` [Example 79], 31 to 100 nM. In the case of `Cn1ccnc1Cn1c2c(c(-c3ccc(F)cc3)c1-c1ccncc1)C(=O)NCC2` [Example 80], the IC50 fell in the range of 100 to 15000 nM.

As for `Cc1nc(Cn2c3c(c(-c4ccc(F)cc4)c2-c2ccncc2)C(=O)NCC3)no1` [Example 81], the IC50 fell in the range of 31 to 100 nM. Still for that read-out and setting: for `O=C1NCCc2c1c(-c1ccc(F)cc1)c(-c1ccncc1)n2CCO` [Example 82] the value was 100 to 15000 nM; for `CC(C)NC(=O)Cn1c2c(c(-c3ccc(F)cc3)c1-c1ccncc1)C(=O)NCC2` [Example 83], 100 to 15000 nM; for `N#Cc1cc(F)c(Cn2c3c(c(-c4ccc(F)cc4)c2-c2ccncc2)C(=O)NCC3)c(F)c1` [Example 84], below 30 nM. `O=C(Nc1cc(-c2c(-c3ccc(F)cc3)c3c(n2CC2CCOCC2)CCNC3=O)ccn1)c1ccncc1` [Example 85]: the IC50 was 100 to 15000 nM. Turning to `O=C(Nc1cc(-c2c(-c3ccc(F)cc3)c3c(n2CC2CCOCC2)CCNC3=O)ccn1)c1ccccc1` [Example 86], the IC50 fell in the range of 100 to 15000 nM. On to `O=C1NCCc2c1c(-c1ccc(F)cc1)c(-c1ccnc(NC(=O)C3CC3)c1)n2CC1CCOCC1` [Example 87], for which the IC50 fell in the range of 31 to 100 nM.

Regarding `CC(C)C(=O)Nc1cc(-c2c(-c3ccc(F)cc3)c3c(n2CC2CCOCC2)CCNC3=O)ccn1` [Example 88], the concentration for half-maximal inhibition (IC50) is 100 to 15000 nM. On the same count and under the same terms, for `COc1ccc(C(=O)Nc2cc(-c3c(-c4ccc(F)cc4)c4c(n3CC3CCOCC3)CCNC4=O)ccn2)cc1` [Example 89] the value was 100 to 15000 nM. In the case of `CCC(=O)Nc1cc(-c2c(-c3ccc(F)cc3)c3c(n2CC2CCOCC2)CCNC3=O)ccn1` [Example 90], the IC50 lay in the range of 100 to 15000 nM. As for `CC(C)OC(=O)Nc1cc(-c2c(-c3ccc(F)cc3)c3c(n2CC2CCOCC2)CCNC3=O)ccn1` [Example 91], the IC50 is 100 to 15000 nM. Turning to `CS(=O)(=O)Nc1cc(-c2c(-c3ccc(F)cc3)c3c(n2CC2CCOCC2)CCNC3=O)ccn1` [Example 92], the IC50 is 100 to 15000 nM. Same read-out and setting: for `CC(C)CC(=O)Nc1cc(-c2c(-c3ccc(F)cc3)c3c(n2CC2CCOCC2)CCNC3=O)ccn1` [Example 93] the value was 100 to 15000 nM. On the same count and under the same terms, for `CCCC(=O)Nc1cc(-c2c(-c3ccc(F)cc3)c3c(n2CC2CCOCC2)CCNC3=O)ccn1` [Example 94] the value was 100 to 15000 nM; for `CCOC(=O)Nc1cc(-c2c(-c3ccc(F)cc3)c3c(n2CC2CCOCC2)CCNC3=O)ccn1` [Example 95], 31 to 100 nM; for `CCNC(=O)Nc1cc(-c2c(-c3ccc(F)cc3)c3c(n2CC2CCOCC2)CCNC3=O)ccn1` [Example 97], 100 to 15000 nM.

`CC(=O)Nc1cc(-c2c(-c3ccc(F)cc3)c3c(n2Cc2ccc(F)c(C#N)c2)CCNC3=O)ccn1` [Example 99]: the IC50 lay within 31 to 100 nM.

`CC(=O)Nc1cc(-c2c(-c3ccc(F)cc3)c3c(n2Cc2ccc(F)cc2C#N)CCNC3=O)ccn1` [Example 100]: the IC50 is below 30 nM. Turning to `CC(=O)Nc1cc(-c2c(-c3ccc(F)cc3)c3c(n2Cc2ccc(C(F)(F)F)cc2F)CCNC3=O)ccn1` [Example 101], the IC50 is below 30 nM. Turning to `CC(=O)Nc1cc(-c2c(-c3ccc(F)cc3)c3c(n2Cc2ccc(C(F)(F)F)cc2)CCNC3=O)ccn1` [Example 102], the IC50 lay in the range of 100 to 15000 nM. As for `Cc1ccc(-c2c3c(n(CC4CCOCC4)c2-c2ccncc2)CCNC3=O)c(C)c1` [Example 103], the IC50 lay within 100 to 15000 nM.

As for `COc1ccc(-c2c3c(n(CC4CCOCC4)c2-c2ccncc2)CCNC3=O)cc1` [Example 104], the half-maximal inhibitory concentration (IC50) lay within 100 to 15000 nM. Consider `O=C1NCCc2c1c(-c1cccc(C(F)(F)F)c1)c(-c1ccncc1)n2CC1CCOCC1` [Example 105], for which the IC50 lay in the range of 100 to 15000 nM. As to `CC(=O)Nc1cccc(-c2c3c(n(CC4CCOCC4)c2-c2ccncc2)CCNC3=O)c1` [Example 106], the IC50 was 100 to 15000 nM.

With `COc1ccc(-c2c3c(n(CC4CCOCC4)c2-c2ccncc2)CCNC3=O)cn1` [Example 107], the IC50 lay in the range of 100 to 15000 nM. Take `CN(C)c1cccc(-c2c3c(n(CC4CCOCC4)c2-c2ccncc2)CCNC3=O)c1` [Example 109]: the IC50 lay in the range of 100 to 15000 nM. Consider `O=C1NCCc2c1c(-c1cccc(OC(F)(F)F)c1)c(-c1ccncc1)n2CC1CCOCC1` [Example 110], for which the IC50 was in the range of 100 to 15000 nM. With `O=C1NCCc2c1c(-c1cnc3ccccc3c1)c(-c1ccncc1)n2CC1CCOCC1` [Example 111], the IC50 was 100 to 15000 nM. As to `O=C1NCCc2c1c(-c1cccc3ccncc13)c(-c1ccncc1)n2CC1CCOCC1` [Example 112], the IC50 is 100 to 15000 nM. The same measure, in the same setting: for `COc1ccc(-c2c3c(n(Cc4ccc(F)cc4C#N)c2-c2ccncc2)CCNC3=O)cc1OC` [Example 113] the value was 100 to 15000 nM.

On to `N#Cc1cc(F)ccc1Cn1c2c(c(-c3cccc(OC(F)(F)F)c3)c1-c1ccncc1)C(=O)NCC2` [Example 114], for which the concentration for half-maximal inhibition (IC50) was 31 to 100 nM. For the compound `N#Cc1cc(F)ccc1Cn1c2c(c(-c3ccc(F)c(F)c3)c1-c1ccncc1)C(=O)NCC2` [Example 115], the half-maximal inhibitory concentration (IC50) is below 30 nM. On the same count and under the same terms, for `N#Cc1cc(F)ccc1Cn1c2c(c(-c3ccc4ncccc4c3)c1-c1ccncc1)C(=O)NCC2` [Example 116] the value was 100 to 15000 nM. Take `COc1cc(F)cc(-c2c3c(n(Cc4ccc(F)cc4C#N)c2-c2ccncc2)CCNC3=O)c1` [Example 117]: the IC50 lay within 31 to 100 nM. Turning to `Cn1ccc2cc(-c3c4c(n(Cc5ccc(F)cc5C#N)c3-c3ccncc3)CCNC4=O)ccc21` [Example 118], the IC50 lay within 31 to 100 nM. As to `COc1ccc(-c2c3c(n(Cc4ccc(F)cc4C#N)c2-c2ccncc2)CCNC3=O)cc1` [Example 121], the IC50 lay within 31 to 100 nM. On the same count and under the same terms, for `N#Cc1cc(F)ccc1Cn1c2c(c(-c3ccc(OC(F)(F)F)cc3)c1-c1ccncc1)C(=O)NCC2` [Example 122] the value was 100 to 15000 nM.

Turning to `N#Cc1cc(F)ccc1Cn1c2c(c(-c3cccc(C(F)(F)F)c3)c1-c1ccncc1)C(=O)NCC2` [Example 123], the IC50 is below 30 nM.

Regarding `COc1ccc(-c2c3c(n(Cc4ccc(F)cc4C#N)c2-c2ccncc2)CCNC3=O)cn1` [Example 124], the half-maximal inhibitory concentration (IC50) was below 30 nM.

As to `CS(=O)(=O)c1cccc(-c2c3c(n(Cc4ccc(F)cc4C#N)c2-c2ccncc2)CCNC3=O)c1` [Example 126], the half-maximal inhibitory concentration (IC50) lay in the range of 100 to 15000 nM. In the case of `N#Cc1cc(F)ccc1Cn1c2c(c(-c3ccsc3)c1-c1ccncc1)C(=O)NCC2` [Example 128], the IC50 is below 30 nM. As to `N#Cc1cc(F)ccc1Cn1c2c(c(-c3cccc(Cl)c3Cl)c1-c1ccncc1)C(=O)NCC2` [Example 129], the IC50 was in the range of 31 to 100 nM.

Staying with this assay, now noted: read-out: IC50 for Inhibition of RIPK3.
As for `O=C1NCCc2c1c(-c1cccnc1)c(-c1ccncc1)n2CC1CCOCC1` [Example 108], the IC50 lay within 100 to 15000 nM. Consider `N#Cc1cc(F)ccc1Cn1c2c(c(-c3cccnc3)c1-c1ccncc1)C(=O)NCC2` [Example 119], for which the IC50 lay in the range of 31 to 100 nM. Same read-out and setting: for `N#Cc1cc(F)ccc1Cn1c2c(c(-c3cccc(-c4ccccc4)c3)c1-c1ccncc1)C(=O)NCC2` [Example 120] the value was 100 to 15000 nM; for `N#Cc1cc(F)ccc1Cn1c2c(c(-c3ccccc3-c3ccccc3)c1-c1ccncc1)C(=O)NCC2` [Example 125], 100 to 15000 nM.
